Assay results: patent US6288067A, “Prophylactic or therapeutic agents for drug-induced renal injury” (Suntory Limited, priority 1998, dated 2001)

Assays:
[1] = Biopterin (BP) level in blood by HPLC in cyclosporin-induced renal injury rats; assay type: in vivo, Sprague-Dawley rats; conditions: average; cyclosporin 15 mg/kg/day s.c. plus BH4 dihydrochloride 10 mg/kg/day oral
Experimental: (§1) Sprague-Dawley rats at the age of 8 to 10 weeks (supplied from Charles River) (300 g) were divided into the following three experimental groups, and examined by comparison. The animals were grown with a low-salt (0.05%) feed during the experimental period of 6 weeks, and treated for 5 weeks from the second to last weeks of the experiment as follows.
(§2) Each group was observed during the experimental period of 6 weeks. The blood pressure, renal cortical NOS activity and blood BP level were determined by the procedures described below. After 6 weeks, blood was collected from the abdominal aorta under anesthesia with phenobarbital, and then the kidney was perfused with physiological saline, then extracted and histologically examined for the effects of BH4 administration on cyclosporin-induced renal injury.
(§3) Group-to-group statistic analyses were made by two-way ANOVA. In the following analyses, the significance level was p<0.05.

[2] = Blood pressure by the tail-cuff method in cyclosporin-induced renal injury rats; assay type: in vivo, Sprague-Dawley rats; conditions: until the end of observation (6 weeks); cyclosporin 15 mg/kg/day s.c.; BH4 group: plus BH4 dihydrochloride 10 mg/kg/day oral
Experimental: as §1, §2
Blood pressure was measured by the tail-cuff method at the start of the experiment and after 2, 4 and 6 weeks.
as §3

[3] = test system: cyclosporin-induced renal injury rats; assay: Histopathological findings (arteriolopathy) in renal tissue samples, HE and periodic acid-Shiff staining; assay type: in vivo, Sprague-Dawley rats
Experimental: as §1, §2
After collecting urine and measuring blood pressure at week 6, the animals were abdominally incised under anesthesia, bled from the abdominal aorta and perfused with physiological saline via this site. The extracted kidney was fixed in a 10% formaldehyde solution, embedded in paraffin, then sliced by a microtome into renal tissue samples of 4 μm. The samples were stained with hematoxylin/eosin (HE) and periodic acid-Shiff. The incidences of pathological findings, i.e. arteriolopathy in the rat renal tissue samples were examined by comparison.
as §3

NOS (NADPH-diaphorase) = assay: Renal histochemistry, NADPH-diaphorase staining; assay type: in vivo, Sprague-Dawley rats
Experimental: as §1, §2
(§4) Sections were prepared from frozen renal tissues and stained with NADPH-diaphorase for evaluating NOS activity on the tissues. The tissues were also stained with a monoclonal antibody against the macrophage cell membrane antigen ED-1 to examine the NOS isoform.

renal tissue NOS = assay: Renal cortical NOS activity (3H-citrulline produced from 3H-arginine) in cyclosporin-induced renal injury rats; assay type: in vivo, Sprague-Dawley rats; conditions: orally administered BH4, cyclosporin-treated rats
Experimental: as §1, §2
NOS activity was determined by measuring ^3 H-citrulline produced by renal tissue NOS using 3H-arginine.
as §3

[4] = Acute toxicity, oral, rats; conditions: rat, in vivo, po
rats = assay: Acute toxicity, oral, rats; conditions: rats, oral route
ED-1-positive cells = assay: Renal histochemistry, staining with monoclonal antibody against macrophage cell membrane antigen ED-1; assay type: in vivo, Sprague-Dawley rats; conditions: frozen renal tissues; cyclosporin 15 mg/kg/day s.c.; BH4 group: plus BH4 dihydrochloride 10 mg/kg/day oral
Experimental: as §1, §2, §4

[5] = as reported in Japanese Patent Public Disclosure No. 25323/84; cited from earlier work

| SMILES | decrease of blood BP level as compared with CyA group [1] [nmol] | Blood pressure [2] | histopathological findings of arteriolopathy, conclusion in words ([3]; model rats, BH4 orally administered) | arteriolopathy, result in words with significance ([3]; p<0.0001, cyclosporin 15 mg/kg/day s.c., BH4 group: plus BH4 dihydrochloride 10 mg/kg/day oral) | Percentage of the incidence of pathological findings in renal tissues: Arteriolopathy ([3]; ± SE, week 6, control group 0.00 ± 0.00, cyclosporin 15 mg/kg/day s.c., BH4 group: plus BH4 dihydrochloride 10 mg/kg/day oral) [%] | NADPH-diaphorase stainability (NOS (NADPH-diaphorase); frozen renal tissues, cyclosporin 15 mg/kg/day s.c., BH4 group: plus BH4 dihydrochloride 10 mg/kg/day oral) | functions of vascular endothelial NOS (NOS (NADPH-diaphorase); renal histochemistry, cyclosporin plus oral BH4 dihydrochloride) | vascular endothelial NOS activity level / function (renal tissue NOS) | LD50 [4] [mg/kg] | toxicity in words (rats) | invasions of ED-1-positive cells (ED-1-positive cells) | toxicity in words [5] |
| --- | --- | --- | --- | --- | --- | --- | --- | --- | --- | --- | --- | --- |
| C[C@H](O)[C@H](O)[C@H]1CNc2nc(N)[nH]c(=O)c2N1 [BH4, (6R)-L-erythro-5,6,7,8-tetrahydrobiopterin] | 0.002 | kept at a normal level | remarkably improved histopathological findings | significantly (p<0.0001) inhibited arteriolopathy | 36.814 ± 2.093 | recovered the NADPH-diaphorase stainability | normalized the functions of vascular endothelial NOS | increased vascular endothelial NOS activity level | ≥ 2000 | little toxicity | decreased invasions of ED-1-positive cells |  |
| C[C@H](O)[C@H](O)C1CNc2nc(N)[nH]c(=O)c2N1 (stereo partly drawn) [(6R,S)-5,6,7,8-tetrahydrobiopterin] |  |  |  |  |  |  |  |  |  |  |  | only slightly toxic |
